One assay relates to KB. Briefly: Cytotoxicity against human KB cells. It is filed as functional, cell-based.
The nature of assay [1]: Inhibition of tubulin microtubule disassembly.

Activity calls are given as the source filed them. No cut-off for these calls is given here.

As for `CC(C)CC[C@H](C[C@]12C[C@H](CCC(C)C)C(C)(C)[C@](CCC(C)C)(C(=O)C(C(=O)c3ccc(O)c(O)c3)=C1O)C2=O)C(C)C` [OCTAHYDROXANTHOCHYMOL], the half-inhibitory concentration (IC50) with KB stood at 20 µM. For the same compound, the outcome in assay [1] was inactive.

`CC(=O)O[C@H]1C(=O)[C@@]2(C)[C@H]([C@H](OC(=O)c3ccccc3)[C@]3(O)C[C@H](OC(=O)[C@H](O)[C@@H](NC(=O)c4ccccc4)c4ccccc4)C(C)=C1C3(C)C)[C@]1(OC(C)=O)CO[C@@H]1C[C@@H]2O` [PACLITAXEL] registered a 50% inhibitory concentration (IC50) in assay [1] of 0.5 µM.

By IC50 is commonly meant the concentration at which inhibition is half-maximal. Higher therefore signals a need for much substance.
